One block for each compound: values may come before it.
How the values were obtained:
[1] = MC540 probe fluorescence intensity in MM liposomes; details: 37 °C, positive = decrease
Method: (§1) Two types of liposomes were used to study interactions with biological membranes: liposomes mimicking the composition of cancer cell membranes (mimic membrane liposome—MM) and liposomes formed from lipids extracted from human blood erythrocyte membranes (red blood cell membrane liposome—RBCM). […] Both lipids, dissolved in chloroform (MM liposome) and n-decane (RBCM liposome), were evaporated under a nitrogen atmosphere, and then dried in a desiccator for 90 min under a vacuum. The obtained dry lipid film was hydrated in phosphate buffer, pH 7.4, obtaining a concentration of 0.1 mg/ml, and then vortexed for one minute until a homogeneous, milky suspension was observed. The mixture was sonicated (Sonic, Milano, Italia) for 15 min keeping the sample in a bath of ice water, thus providing a cooling temperature of 0 °C. The suspension was then processed (extrusion) through polycarbonate filters with pore diameters of 100 and 200 nm using a Lipex extruder (Evonik). Liposomes, which had been prepared according to this procedure, was used in fluorimetric studies.
(§2) To investigate these properties three fluorescent probes were used: MC540, TMA-DPH, and DPH. MC540 localizes to the outer, hydrophilic part of the membrane, within the region of the glycerol skeleton[44]. Changes in the fluorescence intensity of this probe were formulated as the relative change in intensity to the control as a function of anthocyanins concentration. The TMA-DPH and DPH probes are supposed to locate nearer to the interface and in the hydrophobic region, respectively[45]. The measurement of changes in the anisotropy of the TMA-DPH and DPH probes allowed us to reflect the mobility of the fluorescent probes in the membrane, and therefore to determine the fluidity of the bilayer[46]. Fluorescence anisotropy was calculated using the formula[47]:1 A=I‖-GI⊥/I‖+2GI⊥ where I‖ and I⊥ are the intensity of fluorescence in parallel and perpendicular directions, to the plane of polarization of the excitation wave, respectively. G is an apparatus constant that depends on the emission wavelength.
(§3) Liposomes (the concentration of lipids in the sample was 0.1 mg/ml) were incubated for 30 min with the appropriate probe (dissolved in DMF, 1 µM concentration), and then the tested anthocyanins were added (final concentration of 1 to 30 µM). The control sample consisted of liposomes and a fluorescent probe. Fluorescence was measured on a fluorimeter (Cary Eclipse, Varian, San Diego, USA) at 37 °C. The excitation wavelengths λex and emission wavelengths λem respectively: MC540—λexc = 540 nm, λem = 590 nm; DPH—λexc = 360 nm, λem = 425 nm. nm; TMA-DPH—λexc = 340 nm, λem = 430 nm.

[2] = MC540 probe fluorescence intensity in RBCM liposomes; parameters: species or system human; details: 37 °C, positive = decrease
Method: as §1, §2, §3

[3] = TMA-DPH probe fluorescence anisotropy in MM liposomes; details: negative = increase in anisotropy
Method: as §1, §2, §3

[4] = TMA-DPH probe fluorescence anisotropy in RBCM liposomes; parameters: species or system human; details: negative = increase in anisotropy
Source text: Two types of liposomes were used to study interactions with biological membranes: liposomes mimicking the composition of cancer cell membranes (mimic membrane liposome—MM) and liposomes formed from lipids extracted from human blood erythrocyte membranes (red blood cell membrane liposome—RBCM). […] The RBCM liposome was according to the methodology described previously[42] with minor modifications[43]. Both lipids, dissolved in chloroform (MM liposome) and n-decane (RBCM liposome), were evaporated under a nitrogen atmosphere, and then dried in a desiccator for 90 min under a vacuum. The obtained dry lipid film was hydrated in phosphate buffer, pH 7.4, obtaining a concentration of 0.1 mg/ml, and then vortexed for one minute until a homogeneous, milky suspension was observed. The mixture was sonicated (Sonic, Milano, Italia) for 15 min keeping the sample in a bath of ice water, thus providing a cooling temperature of 0 °C. The suspension was then processed (extrusion) through polycarbonate filters with pore diameters of 100 and 200 nm using a Lipex extruder (Evonik). Liposomes, which had been prepared according to this procedure, was used in fluorimetric studies.
To investigate these properties three fluorescent probes were used: MC540, TMA-DPH, and DPH. MC540 localizes to the outer, hydrophilic part of the membrane, within the region of the glycerol skeleton[44]. […] The TMA-DPH and DPH probes are supposed to locate nearer to the interface and in the hydrophobic region, respectively[45]. The measurement of changes in the anisotropy of the TMA-DPH and DPH probes allowed us to reflect the mobility of the fluorescent probes in the membrane, and therefore to determine the fluidity of the bilayer[46]. Fluorescence anisotropy was calculated using the formula[47]:1 A=I‖-GI⊥/I‖+2GI⊥ where I‖ and I⊥ are the intensity of fluorescence in parallel and perpendicular directions, to the plane of polarization of the excitation wave, respectively. G is an apparatus constant that depends on the emission wavelength.
as §3

[5] = DPH probe fluorescence anisotropy in MM liposomes; details: for Changes in DPH anisotropy relative to the control: MM, negative = increase in anisotropy
Method: as §1, §2, §3

[6] = DPH probe fluorescence anisotropy in RBCM liposomes; parameters: species or system human; details: for Changes in DPH anisotropy relative to the control: RBCM, negative = increase in anisotropy
Method: as §1, §2, §3

[7] = DPH fluorescence quenching, dissociation constant with MM liposome membrane; assay type: binding; details: 37 °C
Method: as §1
(§4) The phenomenon of quenching the fluorescence of the DPH probe by biologically active substances enabled us to evaluate the partition coefficient (Kd, dissociation constant) of anthocyanins with both MM and RBCM liposome membranes. For this purpose, changes in the fluorescence intensity of this probe were checked and the coefficient was calculated using the equation[48]:2 1/F0/F-1=Kd/[liposomes]×1/[anthocyanins]+1/liposomes where F0—fluorescence intensity in the absence of anthocyanins (control sample), F—fluorescence intensity in the presence of anthocyanins, [liposomes]—concentration of liposomes in mg/ml, [anthocyanins]—concentration of anthocyanins tested mg/ml.
as §3

[8] = DPH fluorescence quenching, dissociation constant with RBCM liposome membrane; assay type: binding, human; details: 37 °C
Method: as §1, §4, §3

[9] = biological target: human serum albumin (HSA) (Homo sapiens, UniProt P02768); test: Quenching of natural fluorescence of human serum albumin; assay type: binding; details: HSA […] 10^–5 M, 37 °C
Sequence of human serum albumin (HSA) (P02768 25-609): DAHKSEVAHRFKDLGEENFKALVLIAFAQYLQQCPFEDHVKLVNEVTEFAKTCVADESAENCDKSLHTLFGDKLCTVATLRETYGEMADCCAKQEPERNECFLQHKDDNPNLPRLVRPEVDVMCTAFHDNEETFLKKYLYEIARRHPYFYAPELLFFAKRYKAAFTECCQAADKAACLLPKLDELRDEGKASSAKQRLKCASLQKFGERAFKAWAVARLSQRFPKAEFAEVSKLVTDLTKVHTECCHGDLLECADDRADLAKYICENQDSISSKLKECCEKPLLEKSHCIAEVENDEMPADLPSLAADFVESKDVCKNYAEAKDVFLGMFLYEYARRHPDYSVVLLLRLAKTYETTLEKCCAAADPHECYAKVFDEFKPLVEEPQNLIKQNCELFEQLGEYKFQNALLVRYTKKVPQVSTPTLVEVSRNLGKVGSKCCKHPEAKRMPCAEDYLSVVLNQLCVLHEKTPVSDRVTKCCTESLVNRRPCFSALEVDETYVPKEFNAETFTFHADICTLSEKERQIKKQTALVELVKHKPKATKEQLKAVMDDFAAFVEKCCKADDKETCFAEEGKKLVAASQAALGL
Method: The phenomenon of quenching the natural fluorescence of human serum albumin (HSA) was used to investigate the potential interaction of anthocyanins with this protein. […] Anthocyanins with concentrations ranging from 1 to 30 µM were added to HSA dissolved in phosphate buffer (1.5 × 10^–5 M) and then incubated at 37 °C for 20 min. Emission spectra were performed on a fluorimeter Cary Eclipse (Varian, San Diego, USA) at 37 °C. HSA fluorescence was excited with a wavelength of λ = 280 nm, the emission was measured in the range from 286 to 460 nm, and the fluorescence intensity was read at 345 nm where the emission maximum of HSA was located.
The Stern–Volmer equation was used to thoroughly describe the quenching mechanism of natural fluorescence and to determine the bindings parameters of HSA: anthocyanin complexes:4 F0/F=1+Kqτ0Q=1+KSV[Q] where F0—fluorescence intensity in the absence of anthocyanins (control sample), F—fluorescence intensity in the presence of anthocyanins, KSV—Stern–Volmer quenching constant (KSV = Kq·τ0), [Q]—concentration of quencher (tested compound), Kq—bimolecular quenching constant, τ0—a lifetime of the fluorophore in the absence of quencher the fluorescence lifetime of a biopolymer is calculated as 5 × 10^–9 s[51].
The apparent binding constants (Kb) and the number of binding sites (n) can be calculated using the following equation:5 log(F0-F/F]=logKb+nlog[Q]
F0 and F are the fluorescence intensities before and after the addition of the quencher. From the linear plot of log (F0 − F)/F versus log [Q], the value of Kb was obtained from the intercept.

pHbApr-1-Neo plasmid DNA = test: TCSPC-FCS of PicoGreen-labelled plasmid DNA with anthocyanins; assay type: binding; details: for decrease in the diffusion time (tD): tested range of comp/bp from 0 to 5
Method: To evaluate the biological interaction with DNA molecules the anthocyanins were initially dissolved in ETOH (1 mM). […] Mixing of such solutions with the aqueous DNA solutions used in the studies never exceeded 1% concentration ETOH (v/v) in the final solution. The DNA plasmid was labelled by PicoGreen (CPicoGreen/CDNAbp = 0.02)[52]. The pHbApr-1-Neo plasmid (10 kbp and contour length 3.4 µm) was a generous gift from the laboratory of Prof. Maciej Ugorski (Department of Biochemistry and Molecular Biology, Wrocław University of Environmental and Life Sciences Wroclaw, Poland). PicoGreen-labelled DNA samples mixed with the appropriate amount of anthocyanins were left overnight and then measured. The increasing concentration of anthocyanins in the tested samples was expressed as the ratio of the molar concentration of anthocyanins per molar concentration of DNA base pairs in a given sample (comp/bp). The 100 µl samples were measured in Ibidi 8-well chambers. Each point on the graph is a single sample (average of 10 measurements). All measurements were performed at room temperature (25 °C). Time-correlated single-photon counting fluorescence correlation spectroscopy (TCSPC-FCS) was used to study the interaction of plasmid DNA at the single molecule level with all tested anthocyanins. […] Low power of 1uW (at the back aperture of the objective) was chosen to minimize photobleaching and saturation. In the detection plane, a pinhole (50um in diameter) was used and the signal was collected by a single photon avalanche diode (SPAD, Microphoton Devices, Bolzano, Italy). Photon arrival times were stored using fast electronics (Picoharp 300, PicoQuant) in time-tagged time-resolved recording mode. Two independent times were assigned to each detected photon: (1) a time after the beginning of the measurement and (2) a time after the previous laser pulse. The FCS data analysis was done using home-built routines (DevC++, Bloodshed Software and OriginPro70, OriginLab Corporation). The TCSPC data analysis was performed using SymPhoTime software (PicoQuant). Further details of the data evaluation are given elsewhere.

HSA = tested on: HSA; parameters: method as in earlier work; details: cited from earlier work
[10] = 30 µM, listed as delphinidin glucoside

Kd [7]: 93.6 ± 19.5 µM
Kd [8]: 13.4 ± 3.05 µM
Stern Volmer constant KSV [9]: 20.09 ± 2.57 × 10^3 M^−1
number of binding sites n [9]: 0.96 ± 0.03
Compound: OCC1OC(Oc2cc3c(O)cc(O)cc3[o+]c2-c2cc(O)c(O)c(O)c2)C(O)C(O)C1O (centres unmarked) [Dp 3-glc, Delphinidin 3-O-glucoside]
Changes in MC540 fluorescence intensity relative to the control ([1]; 1 µM): 3.27±0.12%
Changes in MC540 fluorescence intensity relative to the control ([1]; 5 µM): 5.73±0.30%
Changes in MC540 fluorescence intensity relative to the control ([1]; 10 µM): 10.51±0.55%
Changes in MC540 fluorescence intensity relative to the control ([1]; 20 µM): 20.30±0.93%
Changes in MC540 fluorescence intensity relative to the control ([1]; 30 µM): 30.30±0.19%
Changes in MC540 fluorescence intensity relative to the control [1, 10]: 30.3 ± 0.2%
Changes in MC540 fluorescence intensity relative to the control ([2]; 1 µM): 11.73±0.51%
Changes in MC540 fluorescence intensity relative to the control ([2]; 5 µM): 17.29±0.54%
Changes in MC540 fluorescence intensity relative to the control ([2]; 10 µM): 22.06±1.25%
Changes in MC540 fluorescence intensity relative to the control ([2]; 20 µM): 36.70±4.24%
Changes in MC540 fluorescence intensity relative to the control ([2]; 30 µM): 47.56±9.12%
Changes in MC540 fluorescence intensity relative to the control [2, 10]: 47.6 ± 9.1%
Changes in TMA-DPH anisotropy relative to the control ([3]; 1 µM): -4.62±0.05%
Changes in TMA-DPH anisotropy relative to the control ([3]; 5 µM): -1.60±0.04%
Changes in TMA-DPH anisotropy relative to the control ([3]; 10 µM): 0.26±0.005%
Changes in TMA-DPH anisotropy relative to the control ([3]; 20 µM): 1.99±0.06%
Changes in TMA-DPH anisotropy relative to the control ([3]; 30 µM): 0.41±0.01%
Changes in TMA-DPH anisotropy relative to the control ([4]; 1 µM): -2.73±0.14%
Changes in TMA-DPH anisotropy relative to the control ([4]; 5 µM): -0.01±0.00%
Changes in TMA-DPH anisotropy relative to the control ([4]; 10 µM): 2.57±0.07%
Changes in TMA-DPH anisotropy relative to the control ([4]; 20 µM): 2.52±0.16%
Changes in TMA-DPH anisotropy relative to the control ([4]; 30 µM): 1.15±0.03%
Changes in DPH anisotropy relative to the control ([5]; 1 µM): -10.78±0.24%
Changes in DPH anisotropy relative to the control ([5]; 5 µM): -12.62±0.18%
Changes in DPH anisotropy relative to the control ([5]; 10 µM): -10.40±0.13%
Changes in DPH anisotropy relative to the control ([5]; 20 µM): -7.80±0.10%
Changes in DPH anisotropy relative to the control ([5]; 30 µM): -6.27±0.05%
Changes in DPH anisotropy relative to the control ([6]; 1 µM): -6.55±0.37%
Changes in DPH anisotropy relative to the control ([6]; 5 µM): -6.14±0.25%
Changes in DPH anisotropy relative to the control ([6]; 10 µM): -6.03±0.39%
Changes in DPH anisotropy relative to the control ([6]; 20 µM): -6.20±0.38%
Changes in DPH anisotropy relative to the control ([6]; 30 µM): -6.30±0.39%
tD changes, times smaller than those caused by Pt3-glc (pHbApr-1-Neo plasmid DNA): more than 5 times
lifetime (LT) (pHbApr-1-Neo plasmid DNA; 0 < comp/bp < 2, decrease from 4.25 ns): about 2.25 ns
lifetime (LT), plateau (pHbApr-1-Neo plasmid DNA; 2 < comp/bp < 5): about 2.1 ns
decrease in the diffusion time (tD) (pHbApr-1-Neo plasmid DNA): 2.5 fold
affinity for HSA compared to aglycone (HSA): tenfold lower

Kd [7]: 10.4 ± 2.45 µM
Kd [8]: 15.3 ± 4.01 µM
Stern Volmer constant KSV [9]: 25.99 ± 1.77 × 10^3 M^−1
number of binding sites n [9]: 1.03 ± 0.03
Compound: COc1cc(-c2[o+]c3cc(O)cc(O)c3cc2O)cc(O)c1O [Pt, Petunidin]
Changes in MC540 fluorescence intensity relative to the control ([1]; 1 µM): 17.63±1.11%
Changes in MC540 fluorescence intensity relative to the control ([1]; 5 µM): 36.62±1.63%
Changes in MC540 fluorescence intensity relative to the control ([1]; 10 µM): 50.22±5.62%
Changes in MC540 fluorescence intensity relative to the control ([1]; 20 µM): 64.46±7.12%
Changes in MC540 fluorescence intensity relative to the control ([1]; 30 µM): 72.51±3.32%
Changes in MC540 fluorescence intensity relative to the control ([1]; 30 µM, listed as petunidin): 72.5 ± 3.3%
Changes in MC540 fluorescence intensity relative to the control ([2]; 1 µM): 16.68±0.58%
Changes in MC540 fluorescence intensity relative to the control ([2]; 5 µM): 32.60±0.15%
Changes in MC540 fluorescence intensity relative to the control ([2]; 10 µM): 43.35±1.60%
Changes in MC540 fluorescence intensity relative to the control ([2]; 20 µM): 55.02±1.41%
Changes in MC540 fluorescence intensity relative to the control ([2]; 30 µM): 61.93±1.58%
Changes in MC540 fluorescence intensity relative to the control ([2]; 30 µM, listed as petunidin): 61.9 ± 1.6%
Changes in TMA-DPH anisotropy relative to the control ([3]; 1 µM): -5.05±0.11%
Changes in TMA-DPH anisotropy relative to the control ([3]; 5 µM): -4.34±0.09%
Changes in TMA-DPH anisotropy relative to the control ([3]; 10 µM): -2.97±0.04%
Changes in TMA-DPH anisotropy relative to the control ([3]; 20 µM): -5.53±0.11%
Changes in TMA-DPH anisotropy relative to the control ([3]; 30 µM): -5.92±0.33%
Changes in TMA-DPH anisotropy relative to the control ([4]; 1 µM): -4.68±0.23%
Changes in TMA-DPH anisotropy relative to the control ([4]; 5 µM): -0.95±0.03%
Changes in TMA-DPH anisotropy relative to the control ([4]; 10 µM): -1.05±0.03%
Changes in TMA-DPH anisotropy relative to the control ([4]; 20 µM): 1.13±0.07%
Changes in TMA-DPH anisotropy relative to the control ([4]; 30 µM): 0.70±0.02%
highest percentage of an increase in DPH anisotropy relative to the control ([5]; MM liposome, 20 µM): 17.6 ± 0.4%
Changes in DPH anisotropy relative to the control ([5]; 1 µM): -13.00±0.31%
Changes in DPH anisotropy relative to the control ([5]; 5 µM): -15.66±0.33%
Changes in DPH anisotropy relative to the control ([5]; 10 µM): -17.48±0.09%
Changes in DPH anisotropy relative to the control ([5]; 20 µM): -17.59±0.36%
Changes in DPH anisotropy relative to the control ([5]; 30 µM): -14.74±0.10%
highest percentage of an increase in DPH anisotropy relative to the control ([6]; RBCM liposome, 20 µM): 10.5 ± 0.7%
Changes in DPH anisotropy relative to the control ([6]; 1 µM): -9.91±0.36%
Changes in DPH anisotropy relative to the control ([6]; 5 µM): -8.46±0.42%
Changes in DPH anisotropy relative to the control ([6]; 10 µM): -10.18±0.39%
Changes in DPH anisotropy relative to the control ([6]; 20 µM): -10.51±0.67%
Changes in DPH anisotropy relative to the control ([6]; 30 µM): -9.21±0.62%
lifetime (LT) (pHbApr-1-Neo plasmid DNA; comp/bp from 0 to 5, continuous decrease from 4.25 ns): 2.3 ns
Particle Number (PN) (pHbApr-1-Neo plasmid DNA; comp/bp from 0 to 5, continuous decrease from 5.0): about 0
changes in plasmid tD, lower compared to those obtained for Pt 3-glc (pHbApr-1-Neo plasmid DNA; comp/bp up to 0.8): ~3.5 fold
decrease in the diffusion time (tD) (pHbApr-1-Neo plasmid DNA): 3.5 fold

From paper PMC10412636, “An analysis of interactions between three structurally diverse anthocyanidins, as well as their glucosides, and model biological membranes, albumin, and plasmid DNA” (Scientific Reports, 2023)
